Tested on: A2780 human ovarian carcinoma
Experiment: Human A2780 xenograft tumor growth in athymic nude mice
Type: in vivo
Protocol: A2780 is a human ovarian cell line (Sigma-Aldrich). The cells are grown in culture media at 37° C. in 5% CO2 with humidity in the atmosphere. Cell culture media for A2780 human ovarian carcinoma is RPMI-1640 (without phenol red) with 2.05 mM L-glutamine, 0.01 mg/ml insulin and 10% fetal bovine serum (EBS) added.
To evaluate in viva efficacy and effect A2780 (2×10^6) cells in a 1:1 Matrigel® mix (0.2 mL volume) are implanted by subcutaneous injection in the hind leg of 6-8 weeks of age athymic nude female mice (Harlan Laboratories). A total of 7 to 10 mice are used for each group. Just before implantation, animals are irradiated ([…]). Mice are fed ad libitum on normal chow. Treatment is initiated with oral administration (gavage) of Compound A or vehicle (1% sodium carboxymethylcellulose (Na-CMC) in 0.25% Tween®-80) or Compound B in 1% hydroxyethyl cellulose (HEC)/0.25% Tween® 80/0.05% Antifoam or their vehicle in 0.2 mL volume when tumor size reached to 150±50 mm^3, in this case after the tumor measurements were taken on study day 9. Compound A was administered at 4 or 8 mg/kg on a Monday, Wednesday and Friday schedule for 4 weeks and Compound B was administered at 15 or 30 mg/kg daily for 28 days. Tumor growth and body weight are monitored over time to evaluate efficacy and signs of toxicity. Bidimensional measurements of tumors are performed twice a week and tumor volumes are calculated based on the following formula: (Tumor Volume)=[(L)×(W2)×(II/6)] where L is mid-axis length and W is mid-axis width. Tumor volume data are transformed to a […] to equalize variance across time and treatment groups. The log volume data are analyzed with a two-way repeated measures analysis of variance by time and treatment using the MIXED™ procedure in SAS™ software (version 8.2). The correlation model for the repeated measures is spatial power. Test Groups are: • 01: Control: 1% HEC/0.25% Tween 80/0.05% Antifoam; 1% CMC/0.25% Tween 80/0.05% Antifoam; • 02: Compound A 8 mg/kg; • 03: Compound B 30 mg/kg; • 04: rapamycin 4 mg/kg; • 05: Compound A 8 mg/kg and Compound B 30 mg/kg; • 06: Compound A 4 mg/kg and Compound B 30 mg/kg; • 07: Compound B 15 mg/kg and Compound A 8 mg/kg; • 08: Compound B 15 mg/kg and Compound A 4 mg/kg; • 09: Compound A 8 mg/kg and rapamycin 4 mg/kg.
Using the repeated measures analysis previously described, a contrast statement is used to test for an interaction effect on study day 36, using the two specific treatments that were combined.

## C[C@H](NC(=O)CCC(F)(F)F)C(=O)N[C@@H]1C(=O)N(CCO)c2ncccc2-c2ccccc21 [Compound A, 4,4,4-trifluoro-N-[(1S)-2-[[(7S)-5-(2-hydroxyethyl)-6-oxo-7H-pyrido[2,3-d][3]benzazepin-7-yl]amino]-1-methyl-2-oxo-ethyl]butanamide]
Group 02: Compound A 8 mg/kg oral Mon/Wed/Fri, study day 7 (before first dose)
  Tumor volume, Geometric Mean: 121.62 mm^3
Group 02: Compound A 8 mg/kg oral Mon/Wed/Fri, study day 9 (before first dose)
  Tumor volume, Geometric Mean: 109.98 mm^3
Group 02: Compound A 8 mg/kg oral Mon/Wed/Fri, study day 12
  Tumor volume, Geometric Mean: 131.53 mm^3
Group 02: Compound A 8 mg/kg oral Mon/Wed/Fri, study day 15
  Tumor volume, Geometric Mean: 194.78 mm^3
Group 02: Compound A 8 mg/kg oral Mon/Wed/Fri, study day 19
  Tumor volume, Geometric Mean: 408.55 mm^3
Group 02: Compound A 8 mg/kg oral Mon/Wed/Fri, study day 22
  Tumor volume, Geometric Mean: 639.48 mm^3
Group 02: Compound A 8 mg/kg oral Mon/Wed/Fri, study day 26
  Tumor volume, Geometric Mean: 1140.46 mm^3
Group 02: Compound A 8 mg/kg oral Mon/Wed/Fri, study day 29
  Tumor volume, Geometric Mean: 1384.21 mm^3
Group 02: Compound A 8 mg/kg oral Mon/Wed/Fri, study day 33
  Tumor volume, Geometric Mean: 1631.82 mm^3
Group 02: Compound A 8 mg/kg oral Mon/Wed/Fri, study day 36
  Tumor volume, Geometric Mean: 1616.05 mm^3

## CO[C@@H](C)Cn1c(=O)n(C)c2cnc3ccc(-c4cncc(C(C)(C)O)c4)cc3c21 [Compound B, 8-[5-(1-hydroxy-1-methylethyl)pyridin-3-yl]-1-[(2S)-2-methoxypropyl]-3-methyl-1,3-dihydro-2H-imidazo[4,5-c]quinolin-2-one]
Group 03: Compound B 30 mg/kg oral daily, study day 7 (before first dose)
  Tumor volume, Geometric Mean: 149.36 mm^3
Group 03: Compound B 30 mg/kg oral daily, study day 9 (before first dose)
  Tumor volume, Geometric Mean: 118.70 mm^3
Group 03: Compound B 30 mg/kg oral daily, study day 12
  Tumor volume, Geometric Mean: 138.06 mm^3
Group 03: Compound B 30 mg/kg oral daily, study day 15
  Tumor volume, Geometric Mean: 201.95 mm^3
Group 03: Compound B 30 mg/kg oral daily, study day 19
  Tumor volume, Geometric Mean: 326.33 mm^3
Group 03: Compound B 30 mg/kg oral daily, study day 22
  Tumor volume, Geometric Mean: 488.21 mm^3
Group 03: Compound B 30 mg/kg oral daily, study day 26
  Tumor volume, Geometric Mean: 776.88 mm^3
Group 03: Compound B 30 mg/kg oral daily, study day 29
  Tumor volume, Geometric Mean: 1135.14 mm^3
Group 03: Compound B 30 mg/kg oral daily, study day 33
  Tumor volume, Geometric Mean: 1527.41 mm^3
Group 03: Compound B 30 mg/kg oral daily, study day 36
  Tumor volume, Geometric Mean: 1664.20 mm^3

## CO[C@H]1C[C@@H]2CC[C@@H](C)[C@@](O)(O2)C(=O)C(=O)N2CCCC[C@H]2C(=O)O[C@H]([C@H](C)C[C@@H]2CC[C@@H](O)[C@H](OC)C2)CC(=O)[C@H](C)/C=C(\C)[C@@H](O)[C@@H](OC)C(=O)[C@H](C)C[C@H](C)/C=C/C=C/C=C/1C [rapamycin, reference compound]
Group 04: rapamycin 4 mg/kg, study day 7 (before first dose)
  Tumor volume, Geometric Mean: 130.45 mm^3
Group 04: rapamycin 4 mg/kg, study day 9 (before first dose)
  Tumor volume, Geometric Mean: 100.08 mm^3
Group 04: rapamycin 4 mg/kg, study day 12
  Tumor volume, Geometric Mean: 130.81 mm^3
Group 04: rapamycin 4 mg/kg, study day 15
  Tumor volume, Geometric Mean: 215.88 mm^3
Group 04: rapamycin 4 mg/kg, study day 19
  Tumor volume, Geometric Mean: 428.88 mm^3
Group 04: rapamycin 4 mg/kg, study day 22
  Tumor volume, Geometric Mean: 786.46 mm^3
Group 04: rapamycin 4 mg/kg, study day 26
  Tumor volume, Geometric Mean: 1291.64 mm^3
Group 04: rapamycin 4 mg/kg, study day 29
  Tumor volume, Geometric Mean: 1664.57 mm^3
Group 04: rapamycin 4 mg/kg, study day 33
  Tumor volume, Geometric Mean: 2136.31 mm^3
Group 04: rapamycin 4 mg/kg, study day 36
  Tumor volume, Geometric Mean: 2461.81 mm^3

From patent publication US11564929B2, “Combination therapy with Notch and PI3K/mTOR inhibitors for use in treating cancer” (Eli Lilly and Company, priority 2016, dated 2023)
